Test results as given in patent publication USRE42890E1, “Furazanobenzimidazoles” (Basilea Pharmaceutica AG, priority 2003, dated 2011).
Where two headings read alike, the source gives them in different places.

Columns and labels:
[1] = test system: Jurkat; experiment: MTS proliferation assay, Jurkat; type: cell-based, human; conditions: 72 h incubation, read-out: MTS proliferation assay IC 50 Jurkat
Experimental: (§1) Cell lines are cultured in RPMI-1640 tissue culture medium containing either 5% or 10% fetal calf serum, 0.05 mM 2-mercaptoethanol, 2 mM glutamine and penicillin/streptomycin 50 μg/ml (complete medium) (Sigma, Buchs, Switzerland). General growth conditions are 37° C. and 7.5% CO2.
(§2) The following human cell lines (either EGFP transfected or not) are being used: HeLa (ATCC: CCL-2), KB (ATCC: CCL-17), MCF7 (ATCC: HTB-22), SK-BR-3 (ATCC: HTB-30), SK-Mel 1 (ATCC: HTB-67), SK-Mel 28 (ATCC: HTB-72), PC-3 (ATCC: CRL-1435), SW 480 (ATCC: CCL-228), NCl-H460 (ATCC: HTB-177), NCl-H1792 (ATCC: CRL-5895), HT1080 (ATCC: CCL-21), Jurkat (ATCC: TIB-152), Ramos (ATCC: CRL-1596), Raji (ATCC: CCL-86), H9 (ATCC: HTB-176), Hut78 (ATCC: TIB-161), K562 (ATCC: CCL 243), HL-60 (ATCC: CCL 240), U-87MG (ATCC: HTB-14), HepG2 (ATCC: HB-8065), U-2 OS (ATCC: HTB-96), Saos-2 (ATCC: HTB-85), U937 (ATCC: CRL 1593), Hs 578T (ATCC: HTB 126), HBL-100 (ATCC: HTB 124), Molt-4 (ATCC: CRL 1582).
(§3) The assay is performed in 96 well tissue culture plates. The cells (range: 1.5*10^3-10^4) are seeded out in 80 μl complete medium 24 h prior to compound treatment. The test compounds are added in 20 μl complete medium containing max 5% DMSO. The final compound concentrations in the assays are 10 μM, 3 μM, 1 μM and 0.3 μM, respectively. The assay plates are incubated for 72 h at culture conditions. The MTS reagent is prepared according to the manufacturer's protocol (Promega G1111). 20 μl MTS reagent are added to each well, the assay plates are quickly spun and incubated for another 3 h at culture conditions. Subsequently, the plates are shortly shaked and absorption measured with a microplate-reader at 492 nm.

[2] = test system: HeLa; experiment: MTS proliferation assay, HeLa; type: cell-based, human; conditions: 72 h incubation, read-out: MTS proliferation assay IC 50 HeLa
Experimental: as §1, §2, §3

[3] = test system: MRC5; experiment: MTS proliferation assay, MRC5; type: cell-based; conditions: MRC5, 72 h incubation, read-out: MTS proliferation assay IC 50 MRC5
Experimental: as §1, §3

[4] = test system: adherent cells or suspension cells; experiment: Hoechst 33342 nuclear staining (fraction of apoptotic nuclei); type: cell-based; parameters: key: 0 relating to no activity; 1 relating to weak activity comprising less than 70% of the cells; score 2 relating to strong activity comprising more than 70% of the cells
Experimental: as §1
This assay is performed in 96 well tissue culture plates. Appropriate number of cells (adherent cells: 3-5*10^3, suspension cells: 8-10*10^3) are being seeded out in 80 μl complete medium. Adherent cells are incubated for 24 h for proper spreading out before addition of test compounds while suspension cells are immediately treated with test compounds after seeding out. The test compounds are added in 20 μl complete medium containing max 5% DMSO. […] After 24 h or 48 h incubation at culture conditions, 10 μl medium containing Hoechst 33342 dye (Sigma B-2261) at 2-5 μg/ml are added to each well. The assay plates are then further incubated for 30 minutes and subsequently analyzed with a standard inverted fluorescence microscope.
The readout allows the determination of the fraction of apoptotic nuclei as well as other morphological criteria specific for apoptosis as a function of the treatment. The following scores are used: 0 relating to no activity, 1 relating to weak activity comprising less than 70% of the cells and score 2 relating to strong activity comprising more than 70% of the cells.

| IC50 [1] | IC50 [2] | SMILES | IC50 [3] | Hoechst 33342 nuclear staining score ([4]; H460, conc 0.01 μm) | Hoechst 33342 nuclear staining score ([4]; H460, conc 0.1 μm) | Hoechst 33342 nuclear staining score ([4]; H460, conc 1 μm) | Hoechst 33342 nuclear staining score ([4]; HeLa, conc 0.01 μm) | Hoechst 33342 nuclear staining score ([4]; HeLa, conc 0.1 μm) | Hoechst 33342 nuclear staining score ([4]; HeLa, conc 1 μm) | Hoechst 33342 nuclear staining score ([4]; Jurkat, conc 0.01 μm) | Hoechst 33342 nuclear staining score ([4]; Jurkat, conc 0.1 μm) | Hoechst 33342 nuclear staining score ([4]; Jurkat, conc 1 μm) | Hoechst 33342 nuclear staining score ([4]; MRC5, conc 0.01 μm) | Hoechst 33342 nuclear staining score ([4]; MRC5, conc 0.1 μm) | Hoechst 33342 nuclear staining score ([4]; MRC5, conc 1 μm) | Hoechst 33342 nuclear staining score ([4]; PBLs, conc 0.01 μm) | Hoechst 33342 nuclear staining score ([4]; PBLs, conc 0.1 μm) | Hoechst 33342 nuclear staining score ([4]; PBLs, conc 1 μm) | Hoechst 33342 nuclear staining score ([4]; Jily, conc 0.01 μm) | Hoechst 33342 nuclear staining score ([4]; Jily, conc 0.1 μm) | further results |
| --- | --- | --- | --- | --- | --- | --- | --- | --- | --- | --- | --- | --- | --- | --- | --- | --- | --- | --- | --- | --- | --- |
| > 1000 nM | > 1000 nM | Nc1nonc1-c1nc2ccccc2n1CC(=NO)c1ccc(-c2ccccc2)cc1 (mixture of isomers) [Example 27] | > 1000 nM | 0 | 0 | 0 | 0 | 0 | 0 | 0 | 0 | 0 | 0 | 0 | 0 | 0 | 0 | 0 |  |  |  |
| 100 to 1000 nM | 100 to 1000 nM | CC(=O)Nc1nonc1-c1nc2ccccc2n1CC(=O)c1ccccc1 [Example 40] | > 1000 nM | 0 | 0 | 0 | 0 | 0 | 0 | 0 | 0 | 0 | 0 | 0 | 0 | 0 | 0 | 0 | 0 | 0 | Hoechst 33342 nuclear staining score ([4]; Jily, conc 1 μm): 1 (1 relating to weak activity comprising less than 70% of the cells) |
| 100 to 1000 nM | 100 to 1000 nM | CON=C(Cn1c(-c2nonc2N)nc2ccccc21)c1cccc(Cl)c1 (mixture of isomers) [Example 37] | 100 to 1000 nM | 0 | 0 | 0 | 0 | 0 | 0 |  |  |  | 0 | 0 | 1 (1 relating to weak activity comprising less than 70% of the cells) | 0 | 0 | 0 | 0 | 0 | Hoechst 33342 nuclear staining score ([4]; Jily, conc 1 μm): 2 (score 2 relating to strong activity comprising more than 70% of the cells) |
| > 1000 nM | > 1000 nM | Nc1nonc1-c1nc2ccccc2n1CC(=O)c1ccc(-c2ccccc2)cc1 [Example 26] | > 1000 nM | 0 | 0 | 0 | 0 | 0 | 0 | 0 | 0 | 0 | 0 | 0 | 0 | 0 | 0 | 0 | 0 | 0 | Hoechst 33342 nuclear staining score ([4]; Jily, conc 1 μm): 0 |
| 100 to 1000 nM | 100 to 1000 nM | CON=C(Cn1c(-c2nonc2N)nc2ccccc21)c1ccc(OC)cc1 (mixture of isomers) [Example 38] | > 1000 nM | 0 | 0 | 0 | 0 | 0 | 0 | 0 | 0 | 0 | 0 | 0 | 0 | 0 | 0 | 0 | 0 | 0 | Hoechst 33342 nuclear staining score ([4]; Jily, conc 1 μm): 0 |
| > 1000 nM | > 1000 nM | Nc1nonc1-c1nc2ccccc2n1CC(=NO)c1ccccc1 (mixture of isomers) [Example 17] |  | 0 | 0 | 0 | 0 | 0 | 0 | 0 | 0 | 0 | 0 | 0 | 0 | 0 | 0 | 0 | 0 | 0 | Hoechst 33342 nuclear staining score ([4]; Jily, conc 1 μm): 0 |
| 100 to 1000 nM | > 1000 nM | COc1ccc(C(Cn2c(-c3nonc3N)nc3ccccc32)=NO)cc1 (mixture of isomers) [Example 20] | > 1000 nM | 0 | 0 | 0 | 0 | 0 | 0 | 0 | 0 | 0 | 0 | 0 | 0 | 0 | 0 | 0 |  |  |  |
|  |  | CNc1nonc1-c1nc2ccccc2n1CC(=O)c1ccc(Cl)cc1 [Example 3, Methyl-{4-[1-(4-chlorophenacyl)-1H-benzimidazol-2-yl]-furazan-3-yl}-amine] |  |  |  |  | 0 | 0 | 0 | 0 | 0 | 0 | 0 | 0 | 0 | 0 | 0 | 0 |  |  | IC50 ([1]; Homo sapiens): 100 to 1000 nM; IC50 ([3]; Homo sapiens): > 1000 nM |
